The test system of one data set is A375-Luc melanoma cells. Briefly: Combination with binimetinib in mice with A375-Luc melanoma (BRAF V600E). The class given is in vivo, BALB/c nude mice. As to conditions: 35 days, oral gavage; monotherapy or combination. As for the experimental part: (§1) Anti-tumor activity of a compound of the present disclosure in combination with binimetinib was also investigated in mice with melanoma cell line with BRAF V600E mutation. BALB/c nude mice implanted with A375-Luc melanoma cells were randomized to control or treatment group when the overall average tumor mean volume was 224 mm^3. Mice were administered twice daily approximately 12 hours apart with vehicle, twice daily approximately 12 hours apart with binimetinib, and once daily with the compound of the present disclosure, or the combination for 35 days by oral gavage. […] For representative results of the study, see FIG. 3.

Data set [1] deals with KRAS G12D patient-derived NSCLC tumor. Briefly: Combination with binimetinib in mice with KRAS G12D NSCLC PDX model. The class given is in vivo, Nu/Nu mice. Conditions: 50 days, oral gavage; monotherapy or combination. Here is the method:
as §1, with “was” for “was also”, “with KRAS G12D NSCLC patient-derived xenograft (PDX) model. Nu/Nu” for “with melanoma cell line with BRAF V600E mutation. BALB/c nude”, “with KRAS G12D patient-derived NSCLC tumor” for “with A375-Luc melanoma cells”, “was 172” for “was 224”, “for 50” for “for 35”, “FIG. 2.” for “FIG. 3.”

For the molecule `Cn1cnc2c(F)c(Nc3ccc(Br)cc3F)c(C(=O)NOCCO)cc21` [binimetinib], the body weight loss result (in the data set on A375-Luc melanoma cells; in data set [1]) was “No significant body weight loss” in each case.

These data come from patent US20260355169A1, “METHODS OF TREATING CANCERS USING ISOQUINOLINE OR 6-AZA-QUINOLINE DERIVATIVES” (Black Diamond Therapeutics, Inc., priority 2022, published 2026).
